Experimental data taken from patent publication US4362743A, “Antibacterial monic acid esters” (Beecham Group Limited, priority 1980, dated 1982).
Converted amounts (≈) assume the structure as drawn. Read-outs that look alike come from different tables or passages of the source.

Tests used:
[1] = system: M. bovis NCTC 10131; assay: microbe, parasite or virus in culture; type: cell-based; conditions: NCTC10131, 144 h
[2] = system: M. bovigenitalium ATCC 14173; assay: Anti-mycoplasmal activity in vitro MIC; type: cell-based; conditions: 144 h
[3] = system: M. hyorhinis ATCC 25021; assay: Anti-mycoplasmal activity in vitro MIC; type: cell-based; conditions: Mesomycoplasma hyorhinis, ATCC25021, 144 h
[4] = system: M. gallisepticum S6; assay: Anti-mycoplasmal activity in vitro MIC; type: cell-based; conditions: Mycoplasmoides gallisepticum, 144 h; M. gallisepticum S6; Friis broth, 0.9% agarose, 6 days 37° C.; read-out: M.I.C.
[5] = system: M. suipneumoniae LABER; assay: Anti-mycoplasmal activity in vitro MIC; type: cell-based; conditions: Mesomycoplasma hyopneumoniae, 144 h; M. suipneumoniae LABER; Friis broth, 0.9% agarose, 6 days 37° C.; read-out: M.I.C.
[6] = system: M. suipneumoniae HK (2); assay: Anti-mycoplasmal activity in vitro MIC; type: cell-based; conditions: Mesomycoplasma hyopneumoniae, 144 h
[7] = system: S. dublin S7; assay: Veterinary bacteria MIC; type: cell-based; conditions: Salmonella enterica
Procedure: (§1) The values were determined using a two fold serial dilutions in Diagnostic Sensitivity Test Agar with an inoculum of 10^4 organisms and incubation for 18 hours at 37° C.

[8] = system: Staph. aureus 152 (pen. sens); assay: Veterinary bacteria MIC; type: cell-based; conditions: Staphylococcus aureus, Diagnostic Sensitivity Test Agar, 18 hours 37° C.
Procedure: as §1

[9] = system: E. coli El; assay: Veterinary bacteria MIC; type: cell-based; conditions: Escherichia coli
Procedure: as §1

[10] = system: Strep. agalactiae SPA1; assay: Veterinary bacteria MIC; type: cell-based; conditions: Streptococcus agalactiae, Diagnostic Sensitivity Test Agar, 18 hours 37° C.
Procedure: as §1

[11] = system: Bord. bronchiseptica B08; assay: Veterinary bacteria MIC; type: cell-based; conditions: Bordetella bronchiseptica; Bord. bronchiseptica B08; Diagnostic Sensitivity Test Agar, 18 hours 37° C.; read-out: M.I.C.
Procedure: as §1

[12] = system: Strep. dysgalactiae SPD1; assay: Veterinary bacteria MIC; type: cell-based; conditions: Streptococcus dysgalactiae, Diagnostic Sensitivity Test Agar, 18 hours 37° C.
Procedure: as §1

[13] = system: Past. haemolytica PA5; assay: Veterinary bacteria MIC; type: cell-based; conditions: Mannheimia haemolytica
Procedure: as §1

[14] = system: S. typhimurium S18; assay: Veterinary bacteria MIC; type: cell-based; conditions: Salmonella enterica
Procedure: as §1

[15] = system: Corynebacterium pyogenes CY1; assay: Veterinary bacteria MIC; type: cell-based; conditions: Trueperella pyogenes
Procedure: as §1

[16] = system: Past. multocida PA1; assay: Veterinary bacteria MIC; type: cell-based; conditions: Pasteurella multocida, Diagnostic Sensitivity Test Agar, 18 hours 37° C.
Procedure: as §1

[17] = system: Erysipelothrix rhusiopathiae NCTC 8163; assay: Veterinary bacteria MIC; type: cell-based
Procedure: as §1

[18] = system: Staph. aureus Oxford; assay: Veterinary bacteria MIC; type: cell-based; conditions: Staphylococcus aureus, Diagnostic Sensitivity Test Agar, 18 hours 37° C.
Procedure: as §1

[19] = system: Strep. suis (Group D) SPS11; assay: Veterinary bacteria MIC; type: cell-based; conditions: Streptococcus suis; Strep. suis (Group D) SPS11; Diagnostic Sensitivity Test Agar, 18 hours 37° C.; read-out: M.I.C.
Procedure: as §1

[20] = system: Bord. brochiasetpica B09; assay: Veterinary bacteria MIC; type: cell-based; conditions: Diagnostic Sensitivity Test Agar, 18 hours 37° C.
Procedure: as §1

[21] = system: E. coli NCTC 10418; assay: Veterinary bacteria MIC; type: cell-based; conditions: Escherichia coli
Procedure: as §1

[22] = system: Strep. uberis SPU1; assay: Veterinary bacteria MIC; type: cell-based; conditions: Streptococcus uberis, Diagnostic Sensitivity Test Agar, 18 hours 37° C.
Procedure: as §1

[23] = system: Past. multocida PA2; assay: Veterinary bacteria MIC; type: cell-based; conditions: Pasteurella multocida
Procedure: as §1

[24] = system: Staph. aureus B4 (pen. resistant); assay: Veterinary bacteria MIC; type: cell-based; conditions: Staphylococcus aureus, Diagnostic Sensitivity Test Agar, 18 hours 37° C.
Procedure: as §1

[25] = system: M. suipneumoniae MS16; assay: Anti-mycoplasmal activity in vitro MIC; type: cell-based; conditions: Mesomycoplasma hyopneumoniae, 144 h; M. suipneumoniae MS16; Friis broth, 0.9% agarose, 6 days 37° C.; read-out: M.I.C.
[26] = Serum binding by ultrafiltration; type: in vitro ADME; conditions: pig, porcine serum, 8 mcg/ml, read-out: % bound to pig serum (converted)
Procedure: Serum binding was assessed by ultrafiltration of porcine serum containing compounds at 8 mcg/ml, and through an Amicon CF50A ultrafiltration cone. Separation of ultrafiltrate was achieved by centrifugation. Unbound concentrations of compound were measured in the ultrafiltrate by microbiological assay (B. subtilis ATCC 6633) against standards prepared in saline.

[27] = system: M. pneumoniae ATCC 15492; assay: Anti-mycoplasmal activity in vitro MIC; type: cell-based; conditions: Mycoplasmoides pneumoniae, ATCC15492, 144 h; M. pneumoniae ATCC 15492; Friis broth, 0.9% agarose, 6 days 37° C.; read-out: M.I.C.
[28] = system: M. dispar NCTC 10125; assay: Anti-mycoplasmal activity in vitro MIC; type: cell-based; conditions: 144 h
[29] = system: Sarcina lutea 8340; assay: Human bacteria MIC; type: cell-based
Procedure: The values were determined by serial dilutions in nutrient agar with 5% chocolated horse blood after incubations for 18 hours at 37° C.

[30] = system: M. suipneumoniae UCD 1; assay: Anti-mycoplasmal activity in vitro MIC; type: cell-based; conditions: Mesomycoplasma hyopneumoniae, UCD1, 144 h
[31] = system: M. suipneumoniae NB12; assay: Anti-mycoplasmal activity in vitro MIC; type: cell-based; conditions: Mesomycoplasma hyopneumoniae

SMILES	MIC [1]	MIC [2]	MIC [4]	MIC [5]	MIC [6]	MIC [8]	MIC [10]	MIC [11]	MIC [12]	MIC [16]	MIC [18]	MIC [19]	MIC [20]	MIC [22]	MIC [24]	MIC [25]	MIC [30]	also measured
C/C(=C\C(=O)OCCCC(=NO)c1cccs1)C[C@@H]1OC[C@H](C[C@@H]2O[C@H]2[C@@H](C)[C@H](C)O)[C@@H](O)[C@H]1O [Example 4, 4-Hydroxyimino-4-(2-thienyl)butyl monate A]	0.025 µg/mL (≈ 0.0489 µM)	0.05 µg/mL (≈ 0.0977 µM)	10 µg/mL (≈ 19.5 µM)	0.25 µg/mL (≈ 0.489 µM)	0.5 µg/mL (≈ 0.977 µM)	0.312 µg/mL (≈ 0.61 µM)	0.625 µg/mL (≈ 1.22 µM)	> 80 µg/mL	0.625 µg/mL (≈ 1.22 µM)	2.5 µg/mL (≈ 4.89 µM)	0.312 µg/mL (≈ 0.61 µM)	10 µg/mL (≈ 19.5 µM)	5 µg/mL (≈ 9.77 µM)	0.312 µg/mL (≈ 0.61 µM)	0.625 µg/mL (≈ 1.22 µM)	0.25 µg/mL (≈ 0.489 µM)	0.5 µg/mL (≈ 0.977 µM)	MIC ([3]; M. hyorhinis ATCC 25021, Friis broth, 0.9% agarose, 6 days 37° C., read-out: M.I.C.): 0.25 µg/mL (≈ 0.489 µM); MIC ([7]; S. dublin S7, Diagnostic Sensitivity Test Agar, 18 hours 37° C., read-out: M.I.C.): > 80 µg/mL; MIC ([9]; E. coli El, Diagnostic Sensitivity Test Agar, 18 hours 37° C., read-out: M.I.C.): > 80 µg/mL; MIC ([13]; Past. haemolytica PA5, Diagnostic Sensitivity Test Agar, 18 hours 37° C., read-out: M.I.C.): 20 µg/mL (≈ 39.1 µM); MIC ([14]; S. typhimurium S18, Diagnostic Sensitivity Test Agar, 18 hours 37° C., read-out: M.I.C.): > 80 µg/mL; MIC ([15]; Corynebacterium pyogenes CY1, Diagnostic Sensitivity Test Agar, 18 hours 37° C., read-out: M.I.C.): > 80 µg/mL; MIC ([17]; NCTC8163, Erysipelothrix rhusiopathiae NCTC 8163, Diagnostic Sensitivity Test Agar, 18 hours 37° C., read-out: M.I.C.): 20 µg/mL (≈ 39.1 µM); MIC ([21]; NCTC10418, E. coli NCTC 10418, Diagnostic Sensitivity Test Agar, 18 hours 37° C., read-out: M.I.C.): > 80 µg/mL; MIC ([23]; PA2, 18 h): 0.156 µg/mL (≈ 0.305 µM); fraction unbound [26]: < 0.039; MIC [27]: 2.5 µg/mL (≈ 4.89 µM); MIC ([28]; M. dispar NCTC 10125, Friis broth, 0.9% agarose, 6 days 37° C., read-out: M.I.C.): 0.1 µg/mL (≈ 0.195 µM); MIC ([29]; Micrococcus luteus, Sarcina lutea 8340, nutrient agar, 5% chocolated horse blood, 18 hours 37° C., read-out: M.I.C.): > 100 µg/mL; MIC ([31]; 144 h, M. suipneumoniae NB12, Friis broth, 0.9% agarose, 6 days 37° C., read-out: M.I.C.): 0.25 µg/mL (≈ 0.489 µM)
C/C(=C\C(=O)OCc1ccc(C=NO)o1)C[C@@H]1OC[C@H](C[C@@H]2O[C@H]2[C@@H](C)[C@H](C)O)[C@@H](O)[C@H]1O [Example 7, 5-Hydroxyiminomethylfurfuryl monate A]	≤ 0.01 µg/mL	0.025 µg/mL (≈ 0.0535 µM)	5 µg/mL (≈ 10.7 µM)	0.5 µg/mL (≈ 1.07 µM)	1 µg/mL (≈ 2.14 µM)	1.25 µg/mL (≈ 2.67 µM)	1.25 µg/mL (≈ 2.67 µM)	> 80 µg/mL	0.625 µg/mL (≈ 1.34 µM)	0.625 µg/mL (≈ 1.34 µM)	1.25 µg/mL (≈ 2.67 µM)	20 µg/mL (≈ 42.8 µM)	2.5 µg/mL (≈ 5.35 µM)	0.625 µg/mL (≈ 1.34 µM)	1.25 µg/mL (≈ 2.67 µM)	0.5 µg/mL (≈ 1.07 µM)	1 µg/mL (≈ 2.14 µM)	MIC [3]: 0.5 µg/mL (≈ 1.07 µM); MIC ([7]; S7, 18 h): > 80 µg/mL; MIC ([9]; 18 h): > 80 µg/mL; MIC ([13]; PA5, 18 h): 5 µg/mL (≈ 10.7 µM); MIC ([14]; TYPHIMURIUM, 18 h): > 80 µg/mL; MIC ([15]; CY1, 18 h): > 80 µg/mL; MIC ([17]; Erysipelothrix rhusiopathiae, NCTC8163, 18 h): > 80 µg/mL; MIC ([21]; NCTC10418, 18 h): > 80 µg/mL; MIC ([23]; Past. multocida PA2, Diagnostic Sensitivity Test Agar, 18 hours 37° C., read-out: M.I.C.): 0.625 µg/mL (≈ 1.34 µM); MIC [28]: 0.1 µg/mL (≈ 0.214 µM); MIC ([29]; Micrococcus luteus, 8340, 18 h): > 100 µg/mL; MIC ([31]; NB12, 144 h): 1 µg/mL (≈ 2.14 µM)
